From PubChem BioAssay AID1963858 (Molecular Pharmacology Branch, DTP, NCI, 2024)

System: HOP-62 multicell spheroids with HUVEC/MSC, viability
Test: Anticancer human tumor HOP-62 cell line growth inhibition [KRAS2];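 also: viability read after a week of compound exposure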;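 as to viability, T/C: 100% = DMSO vehicle-treated spheroids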
Settings: for IC50: curve of first compound; for viability, T/C: stronger effect = lower value
Summary of the method: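 KRAS-mutant tumor cells were grown as spheroids with HUVEC endothelial cells and human MSCs as stroma. Targeted agents were tested alone and with KRAS pathway inhibitors. Doses started at or near clinical Cmax, or 10 microM, descending half-log.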

[1] = second compound 0.0316 µM, first compound 0.0316 µM
[2] = second compound 0.0316 µM, first compound 0.1 µM
[3] = second compound 0.1 µM, first compound 0.0316 µM
[4] = second compound 0.1 µM, first compound 0.1 µM
[5] = second compound 0.316 µM, first compound 0.0316 µM
[6] = second compound 0.316 µM, first compound 0.1 µM
[7] = second compound 1 µM, first compound 0.0316 µM
[8] = second compound 1 µM, first compound 0.1 µM
[9] = second compound 3.16 µM, first compound 0.0316 µM
[10] = second compound 3.16 µM, first compound 0.1 µM
[11] = second compound 0.0316 µM, first compound 0.316 µM
[12] = second compound 0.0316 µM, first compound 1 µM
[13] = second compound 0.0316 µM, first compound 3.16 µM
[14] = second compound 0.0316 µM, first compound 10 µM
[15] = second compound 0.1 µM, first compound 0.316 µM
[16] = second compound 0.1 µM, first compound 1 µM
[17] = second compound 0.1 µM, first compound 3.16 µM
[18] = second compound 0.1 µM, first compound 10 µM
[19] = second compound 0.316 µM, first compound 0.316 µM
[20] = second compound 0.316 µM, first compound 1 µM
[21] = second compound 0.316 µM, first compound 3.16 µM
[22] = second compound 0.316 µM, first compound 10 µM
[23] = second compound 1 µM, first compound 0.316 µM
[24] = second compound 1 µM, first compound 1 µM
[25] = second compound 1 µM, first compound 3.16 µM
[26] = second compound 1 µM, first compound 10 µM
[27] = second compound 3.16 µM, first compound 0.316 µM
[28] = second compound 3.16 µM, first compound 1 µM
[29] = second compound 3.16 µM, first compound 3.16 µM
[30] = second compound 3.16 µM, first compound 10 µM

SMILES	IC50 (second compound 0.0316 µM) [nM]	IC50 (second compound 0.1 µM) [nM]	IC50 (second compound 0.316 µM) [nM]	IC50 (second compound 1 µM) [nM]	IC50 (second compound 3.16 µM) [nM]	viability, T/C [1] [%]	viability, T/C [2] [%]	viability, T/C [3] [%]	viability, T/C [4] [%]	viability, T/C [5] [%]	viability, T/C [6] [%]	viability, T/C [7] [%]	viability, T/C [8] [%]	viability, T/C [9] [%]	viability, T/C [10] [%]	viability, T/C [11] [%]	viability, T/C [12] [%]	viability, T/C [13] [%]	viability, T/C [14] [%]	viability, T/C [15] [%]	also measured
CN(C)C/C=C/C(=O)Nc1cc2c(Nc3ccc(F)c(Cl)c3)ncnc2cc1O[C@H]1CCOC1 + C=CC(=O)N1CCN(c2nc(OCC3CCCN3C)nc3c2CCN(c2cccc4cccc(C)c24)C3)CC1CC#N	> 100	> 100	4.39	< 0.316	< 0.316	99.3	89.6	67.4	61.2	46.8	42.1	31.5	32.2	17.6	13.5	–	–	–	–	–	viability, T/C (second compound 0.0316 µM, first compound 0.000316 µM): 111%; viability, T/C (second compound 0.0316 µM, first compound 0.001 µM): 105%; viability, T/C (second compound 0.0316 µM, first compound 0.00316 µM): 94.9%; viability, T/C (second compound 0.0316 µM, first compound 0.01 µM): 86%; viability, T/C (second compound 0.1 µM, first compound 0.000316 µM): 69%; viability, T/C (second compound 0.1 µM, first compound 0.001 µM): 75.4%; viability, T/C (second compound 0.1 µM, first compound 0.00316 µM): 67.1%; viability, T/C (second compound 0.1 µM, first compound 0.01 µM): 61.5%; viability, T/C (second compound 0.316 µM, first compound 0.000316 µM): 57.4%; viability, T/C (second compound 0.316 µM, first compound 0.001 µM): 52.6%; viability, T/C (second compound 0.316 µM, first compound 0.00316 µM): 49.4%; viability, T/C (second compound 0.316 µM, first compound 0.01 µM): 48.8%; viability, T/C (second compound 1 µM, first compound 0.000316 µM): 42.8%; viability, T/C (second compound 1 µM, first compound 0.001 µM): 44.9%; viability, T/C (second compound 1 µM, first compound 0.00316 µM): 41%; viability, T/C (second compound 1 µM, first compound 0.01 µM): 37%; viability, T/C (second compound 3.16 µM, first compound 0.000316 µM): 22.5%; viability, T/C (second compound 3.16 µM, first compound 0.001 µM): 0.2%; viability, T/C (second compound 3.16 µM, first compound 0.00316 µM): 3.5%; viability, T/C (second compound 3.16 µM, first compound 0.01 µM): 6.01%
COC(=O)c1ccc2c(C(=Nc3ccc(N(C)C(=O)CN4CCN(C)CC4)cc3)c3ccccc3)c(O)[nH]c2c1 + C=CC(=O)N1CCN(c2nc(OCC3CCCN3C)nc3c2CCN(c2cccc4cccc(C)c24)C3)CC1CC#N	< 31.6	< 31.6	< 31.6	< 31.6	< 31.6	42.5	36.9	30	32.6	25.7	21.7	26.5	19.2	6.95	3.11	28.2	26.6	25.1	7.5	21.7	viability, T/C [16]: 23%; viability, T/C [17]: 20.5%; viability, T/C [18]: 8.85%; viability, T/C [19]: 24.1%; viability, T/C [20]: 21.7%; viability, T/C [21]: 20%; viability, T/C [22]: 1.11%; viability, T/C [23]: 19.7%; viability, T/C [24]: 17.8%; viability, T/C [25]: 8.02%; viability, T/C [26]: 0.28%; viability, T/C [27]: 20.2%; viability, T/C [28]: 0.09%; viability, T/C [29]: 0.09%; viability, T/C [30]: 0.95%
O=C(c1cc(Cc2n[nH]c(=O)c3ccccc23)ccc1F)N1CCN(C(=O)C2CC2)CC1 + C=CC(=O)N1CCN(c2nc(OCC3CCCN3C)nc3c2CCN(c2cccc4cccc(C)c24)C3)CC1CC#N	693	< 31.6	< 31.6	< 31.6	< 31.6	76.6	66.2	45	40.5	38.1	37.8	26.4	22.7	11.3	1.1	102	35.3	34.3	27.8	33.8	viability, T/C [16]: 31.4%; viability, T/C [17]: 29%; viability, T/C [18]: 23%; viability, T/C [19]: 35.2%; viability, T/C [20]: 26.4%; viability, T/C [21]: 20.9%; viability, T/C [22]: 18.6%; viability, T/C [23]: 39.3%; viability, T/C [24]: 23.1%; viability, T/C [25]: 21.7%; viability, T/C [26]: 21.4%; viability, T/C [27]: 36.4%; viability, T/C [28]: 6.37%; viability, T/C [29]: 8.8%; viability, T/C [30]: 1.75%
